The assay addresses Insulin receptor (Homo sapiens) (UniProt P06213). As to the kind of experiment: Binding affinity to wild-type human partial length INSR (P997 to E1318 residues) expressed in mammalian expression system assessed as residual binding level at 1 uM by Kinomescan method relative to control.

Chain of Insulin receptor (Homo sapiens) (P06213 28-758 limits assumed): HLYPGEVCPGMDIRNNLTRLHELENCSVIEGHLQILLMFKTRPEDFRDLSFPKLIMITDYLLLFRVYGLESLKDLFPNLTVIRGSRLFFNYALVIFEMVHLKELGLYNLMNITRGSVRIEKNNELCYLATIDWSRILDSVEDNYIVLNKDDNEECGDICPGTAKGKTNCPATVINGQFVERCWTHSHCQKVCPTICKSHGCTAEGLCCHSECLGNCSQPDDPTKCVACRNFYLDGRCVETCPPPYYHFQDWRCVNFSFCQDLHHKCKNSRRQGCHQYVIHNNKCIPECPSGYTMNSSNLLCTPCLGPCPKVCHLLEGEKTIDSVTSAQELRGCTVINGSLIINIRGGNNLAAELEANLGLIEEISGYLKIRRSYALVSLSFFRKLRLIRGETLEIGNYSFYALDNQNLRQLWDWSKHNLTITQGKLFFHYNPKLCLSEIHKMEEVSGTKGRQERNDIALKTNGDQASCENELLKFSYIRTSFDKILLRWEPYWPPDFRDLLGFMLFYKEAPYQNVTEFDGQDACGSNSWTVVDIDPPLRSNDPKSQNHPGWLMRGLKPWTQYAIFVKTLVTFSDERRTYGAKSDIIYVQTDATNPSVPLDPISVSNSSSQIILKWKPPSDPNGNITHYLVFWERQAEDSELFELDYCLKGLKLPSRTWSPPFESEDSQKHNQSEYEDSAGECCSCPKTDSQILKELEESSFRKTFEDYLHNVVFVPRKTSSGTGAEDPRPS
Chain of Insulin receptor (Homo sapiens) (P06213 763-1382 limits assumed): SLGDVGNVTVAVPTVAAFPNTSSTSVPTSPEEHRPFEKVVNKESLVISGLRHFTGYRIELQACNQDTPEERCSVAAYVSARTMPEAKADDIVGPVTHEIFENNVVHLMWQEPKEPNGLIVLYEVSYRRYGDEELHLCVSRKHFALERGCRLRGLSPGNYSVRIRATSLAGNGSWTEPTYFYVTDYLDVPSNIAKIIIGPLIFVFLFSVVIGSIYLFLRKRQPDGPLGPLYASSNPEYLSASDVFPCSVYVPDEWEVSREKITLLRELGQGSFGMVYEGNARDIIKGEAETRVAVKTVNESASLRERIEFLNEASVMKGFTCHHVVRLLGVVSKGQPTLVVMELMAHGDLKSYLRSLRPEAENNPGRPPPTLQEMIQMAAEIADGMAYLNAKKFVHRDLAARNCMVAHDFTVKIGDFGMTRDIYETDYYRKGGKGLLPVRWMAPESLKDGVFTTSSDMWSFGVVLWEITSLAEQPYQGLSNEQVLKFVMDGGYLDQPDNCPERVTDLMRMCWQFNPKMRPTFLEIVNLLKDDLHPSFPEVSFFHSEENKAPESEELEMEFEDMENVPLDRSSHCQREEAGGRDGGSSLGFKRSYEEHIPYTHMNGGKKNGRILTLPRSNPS

With `C=CC(=O)Nc1ccccc1Nc1nc(Nc2ccc(N3CCN(C)CC3)cc2)ncc1C(=O)Nc1c(C)cccc1Cl`, the Activity stood at 100%.
